Measured values published in ChEMBL document CHEMBL1909046, “DrugMatrix in vitro pharmacology data”.

Key:
Androgen receptor [1] = target: T1, Androgen receptor (Rattus norvegicus, UniProt P15207)
T1 sequence (P15207 whole entry): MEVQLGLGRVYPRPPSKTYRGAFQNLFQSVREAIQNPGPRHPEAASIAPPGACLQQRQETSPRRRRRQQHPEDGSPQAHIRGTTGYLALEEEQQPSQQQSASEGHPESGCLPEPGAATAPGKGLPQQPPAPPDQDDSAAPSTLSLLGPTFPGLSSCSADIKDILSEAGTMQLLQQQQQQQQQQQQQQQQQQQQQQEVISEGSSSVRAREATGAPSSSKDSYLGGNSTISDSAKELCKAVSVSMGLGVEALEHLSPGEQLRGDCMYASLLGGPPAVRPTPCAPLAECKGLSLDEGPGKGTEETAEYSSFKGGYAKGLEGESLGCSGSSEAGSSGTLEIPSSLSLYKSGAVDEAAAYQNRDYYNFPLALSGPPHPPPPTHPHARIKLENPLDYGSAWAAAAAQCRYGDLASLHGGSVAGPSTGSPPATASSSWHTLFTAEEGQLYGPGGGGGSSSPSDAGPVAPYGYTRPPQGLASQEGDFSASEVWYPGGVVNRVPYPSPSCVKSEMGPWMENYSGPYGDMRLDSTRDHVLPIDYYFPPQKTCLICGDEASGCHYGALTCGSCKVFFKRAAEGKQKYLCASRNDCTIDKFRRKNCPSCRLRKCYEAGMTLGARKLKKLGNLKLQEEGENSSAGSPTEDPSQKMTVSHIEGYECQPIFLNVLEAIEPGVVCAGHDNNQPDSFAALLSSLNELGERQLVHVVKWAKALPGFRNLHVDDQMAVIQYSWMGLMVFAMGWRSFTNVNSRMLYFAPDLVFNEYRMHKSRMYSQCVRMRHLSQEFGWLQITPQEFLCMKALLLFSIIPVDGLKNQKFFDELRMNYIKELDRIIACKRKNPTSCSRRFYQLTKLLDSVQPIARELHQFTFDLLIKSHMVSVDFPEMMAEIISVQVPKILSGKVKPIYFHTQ

Cytochrome P450 2C9 = Cytochrome P450 2C9 (Homo sapiens, UniProt P11712)
Cytochrome P450 2C19 = Cytochrome P450 2C19 (Homo sapiens, UniProt P33261)
Glucocorticoid receptor [2] = target: T2, Glucocorticoid receptor (Homo sapiens, UniProt P04150); details: hela s3
T2 sequence (P04150 whole entry): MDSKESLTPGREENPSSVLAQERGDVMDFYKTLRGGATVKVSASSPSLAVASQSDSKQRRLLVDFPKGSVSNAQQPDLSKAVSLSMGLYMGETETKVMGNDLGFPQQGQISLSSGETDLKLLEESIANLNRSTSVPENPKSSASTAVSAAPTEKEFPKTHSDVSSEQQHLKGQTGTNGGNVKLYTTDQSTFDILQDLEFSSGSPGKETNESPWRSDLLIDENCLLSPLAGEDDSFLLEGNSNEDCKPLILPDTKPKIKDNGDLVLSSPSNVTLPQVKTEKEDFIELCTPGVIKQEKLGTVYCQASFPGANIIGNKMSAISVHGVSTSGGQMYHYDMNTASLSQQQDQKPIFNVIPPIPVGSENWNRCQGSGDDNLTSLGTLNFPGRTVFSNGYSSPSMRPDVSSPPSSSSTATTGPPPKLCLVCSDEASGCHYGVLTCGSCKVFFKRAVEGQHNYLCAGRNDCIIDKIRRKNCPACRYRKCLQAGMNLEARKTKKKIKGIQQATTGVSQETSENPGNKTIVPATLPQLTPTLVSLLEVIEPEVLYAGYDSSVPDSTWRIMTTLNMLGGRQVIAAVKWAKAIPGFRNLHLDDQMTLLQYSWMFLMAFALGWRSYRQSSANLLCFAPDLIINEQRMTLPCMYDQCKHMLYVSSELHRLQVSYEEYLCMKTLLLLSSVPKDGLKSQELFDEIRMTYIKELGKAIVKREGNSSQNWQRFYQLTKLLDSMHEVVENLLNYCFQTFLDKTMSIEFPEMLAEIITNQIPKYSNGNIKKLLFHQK

Androgen receptor [3] = target: T1, Androgen receptor; remark: listed apart in the source
Glucocorticoid receptor [4] = target: T2, Glucocorticoid receptor; assay: biochemical
Cytochrome P450 1A2 = target: T3, Cytochrome P450 1A2 (Homo sapiens, UniProt P05177)
T3 sequence (P05177 whole entry): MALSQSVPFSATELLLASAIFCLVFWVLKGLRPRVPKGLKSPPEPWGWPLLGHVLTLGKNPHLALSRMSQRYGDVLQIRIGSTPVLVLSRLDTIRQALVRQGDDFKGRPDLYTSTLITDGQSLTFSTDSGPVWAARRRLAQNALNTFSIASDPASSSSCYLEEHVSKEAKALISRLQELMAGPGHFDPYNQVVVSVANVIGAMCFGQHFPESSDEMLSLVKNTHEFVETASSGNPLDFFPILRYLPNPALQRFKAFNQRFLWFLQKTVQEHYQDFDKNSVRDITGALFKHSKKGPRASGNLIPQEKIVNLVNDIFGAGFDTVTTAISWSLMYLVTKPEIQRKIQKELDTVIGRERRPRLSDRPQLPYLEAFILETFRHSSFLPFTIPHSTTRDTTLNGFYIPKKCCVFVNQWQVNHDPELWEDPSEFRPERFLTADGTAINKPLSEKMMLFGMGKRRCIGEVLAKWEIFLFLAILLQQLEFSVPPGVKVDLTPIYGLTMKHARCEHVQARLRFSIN
Also: in other assays of this panel Not Active means under 50% inhibition at 10 µM.

Cytochrome P450 2C9, sequence (P11712 whole entry): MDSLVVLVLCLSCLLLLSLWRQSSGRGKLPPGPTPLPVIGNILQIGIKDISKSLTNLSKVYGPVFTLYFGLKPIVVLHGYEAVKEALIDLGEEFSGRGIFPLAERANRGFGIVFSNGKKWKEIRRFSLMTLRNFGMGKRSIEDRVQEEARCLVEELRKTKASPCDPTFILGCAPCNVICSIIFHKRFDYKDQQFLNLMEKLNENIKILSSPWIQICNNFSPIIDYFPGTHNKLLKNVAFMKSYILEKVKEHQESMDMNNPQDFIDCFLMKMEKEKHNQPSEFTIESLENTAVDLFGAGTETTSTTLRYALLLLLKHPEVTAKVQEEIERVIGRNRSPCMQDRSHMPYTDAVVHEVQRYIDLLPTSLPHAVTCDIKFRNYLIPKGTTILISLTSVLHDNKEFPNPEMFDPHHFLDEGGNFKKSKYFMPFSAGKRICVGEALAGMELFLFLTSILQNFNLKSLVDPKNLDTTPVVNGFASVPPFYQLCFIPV
Cytochrome P450 2C19, sequence (P33261 whole entry): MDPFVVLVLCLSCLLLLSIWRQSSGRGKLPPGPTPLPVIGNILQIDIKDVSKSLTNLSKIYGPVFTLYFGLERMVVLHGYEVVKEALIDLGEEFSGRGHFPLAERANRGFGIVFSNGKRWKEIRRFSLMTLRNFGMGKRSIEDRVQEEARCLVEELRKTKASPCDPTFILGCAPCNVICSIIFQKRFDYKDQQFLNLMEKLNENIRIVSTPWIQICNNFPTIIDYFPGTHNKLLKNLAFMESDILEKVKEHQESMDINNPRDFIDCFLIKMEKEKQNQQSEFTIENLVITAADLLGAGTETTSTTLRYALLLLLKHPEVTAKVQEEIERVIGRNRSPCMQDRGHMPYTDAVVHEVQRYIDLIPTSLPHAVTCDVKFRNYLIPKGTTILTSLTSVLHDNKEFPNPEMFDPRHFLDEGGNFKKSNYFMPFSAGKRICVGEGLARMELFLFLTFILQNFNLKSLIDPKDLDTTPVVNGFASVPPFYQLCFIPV

Structure (SMILES)	IC50 (Androgen receptor [1])	IC50 (Cytochrome P450 2C9) [nM]	IC50 (Cytochrome P450 2C19) [nM]	IC50 (Glucocorticoid receptor [2])	IC50 (Androgen receptor [3]) [nM]	Ki (Androgen receptor [3]) [nM]	IC50 (Glucocorticoid receptor [4]) [nM]	Ki (Glucocorticoid receptor [4]) [nM]	IC50 (Cytochrome P450 1A2) [nM]
COc1ccccc1C(=O)N1CCC(Cc2ccccc2)CC1	Not Active	2000	800	Not Active	–	–	–	–	–
Cc1ccccc1C(=O)N1CCC(Cc2ccccc2)CC1	Not Active	1000	600	Not Active	–	–	–	–	–
S=C=Nc1cccc2ccccc12 [1-NAPHTHYLISOTHIOCYANATE]	–	–	–	–	25500	17000	15400	7000	1000
CC(=O)Nc1cccc(O)c1 [METACETAMOL]	–	–	–	–	–	–	–	–	2000
CCOC(=O)C1=C(C)NC(C)=C(C(=O)OC)C1c1cccc([N+](=O)[O-])c1 (centres undefined) [NITRENDIPINE]	–	300	3000	–	–	–	–	–	–
C#C[C@]1(OC(C)=O)CC[C@H]2[C@@H]3CCC4=CC(=O)CC[C@@H]4[C@H]3CC[C@@]21C [NORETHINDRONE ACETATE]	–	–	800	–	–	–	646	293	–
